US7276519B2, “Thieno[3,2-b]pyridine-6-carbonitriles and thieno[2,3-b]pyridine-5-carbonitriles as protein kinase inhibitors” (Wyeth, priority 2002, dated 2007)
Where “and” joins values, the source holds several entries; their conditions need not be identical. Equal entries are not always repeated.

Experiments:
WM266-4 cells = assay: Cell based screen for inhibitors of Raf and/or Mek kinase, WM266-4; settings: Table 4, four days incubation, SRB
Experimental: (§1) Cell Based Screen for Inhibitors of Raf and/or Mek Kinase.
(§2) Cell Lines: Human tumor cell lines LoVo which are known to be growth inhibited by low nM concentrations of a reference standard inhibitor of Ras and human adenocarcinoma cell line CaCo-2, which is known to be growth resistant to the same reference compound.
(§3) Cell Media: RPMI 1640 with 10% Fetal Bovine Serum supplemented with L-glutamine and Pennicilin/Streptomycin. • Compounds: Supplied usually as a 10 mM stock in 100% DMSO. • Normal Saline: 150 mM NaCl • Trichloroacetic Acid (TCA): 50% (w/v) in water • Sulforhodamine B (SRB): 0.4% (w/v) in 1% Acetic Acid • Tris Base: 10 mM in water Methods
(§4) Cells are plated at 2000 cells per well for cell line LoVo, 1,750 cells for cell line BXPC3, 1,000 cells for cell line WM266–4 and 1500 cells for cell line CaCo-2 in 96 well plates. Cells are plated in media (200 μl) and allowed to adhere overnight at 37° C. At 24 hours post plating, compounds are added directly at a volume of 0.5 μl. For the qualitative screen (compounds screened at 25 μM) compound is added directly to cells. For the quantitative screen, compound is first diluted in DMSO to generate concentrations of compound or reference standard of: 1, 5, 10 and 25 μM. It is advisable to make the dilutions in an identical 96 well plate so that compounds can be added using a multichannel micropipettor set at 0.5 μl. The cells are then incubated for four days after which the media is removed using a 12 well manifold by first tipping the plate forward at a 45 degree angle and then inserting the manifold in an upright orientation to prevent the tips of the manifold from disturbing cells at the bottom of the plate. 200 μl of normal saline is then added to each well using an 8 well multichannel pipettor, followed by the careful addition of 50 μl of 50% TCA. The plates are then incubated for 2 hours at 4° C., after which the supernatant is removed using the same technique as above and the plated washed twice with 200 μl water. The plates are then air dried and 50 μl of SRB stock solution is carefully added so that the entire bottom of each well is covered. This again can be used using an 8 well multichannel pipettor. The SRB is incubated with fixed cells for 15 minutes at room temperature after which the SRB is removed with the manifold as described above and the plates washed twice with 350 μl of 1% acetic acid per well each time. The plates are then air dried after which the bound SRB is released from protein by the addition of 200 μl of Tris base. Resolubilizing the SRB is aided by placing the plates on a rotator for 15–30 minutes. The absorbance of each well is determined at 550 or 562 nm using a microtiter plate reader.
(§5) Each compound or dilution thereof is performed in triplicate. Outliers are identified by visual inspection of the data. Each plate should have a “0” control (vehicle only).
(§6) Quantitative Assay: A standard curve is constructed by plotting the concentration of compound against the average absorbance calculated at that concentration. A curve is plotted and the concentration at which the curve passes through the 50% the absorbance mark seen in the “0” control well is the IC50 calculated for that compound. Multiple entries for a given compound indicate that it was tested multiple times.

BXPC3 cells = assay: Cell based screen for inhibitors of Raf and/or Mek kinase, BXPC3; settings: Homo sapiens, BXPC-3, 96 h; Table 4; four days incubation, SRB
Experimental: as §1, §2, §3, §4, §5, §6

LoVo cells = assay: Cell based screen for inhibitors of Raf and/or Mek kinase, LoVo; design: species or system human; settings: Table 4, four days incubation, SRB
Experimental: as §1, §2, §3, §4, §5, §6

[1] = biological target: T1, Raf-1 (c-Raf) / GST-MEK1 (Raf and/or Mek kinase); assay: Raf/Mek kinase cascade assay; assay type: biochemical, human; settings: Table 4; read-out: Raf/MEK enzyme IC50
T1 construct: Sf9 insect cell lysate containing full length 6his-tagged recombinant human c-Raf; fused on or other part: 6His tag on c-Raf; GST on MEK1
Experimental: Raf/Mek Kinase Cascade Assay
(Specific Activity: ˜200 U/ml). Human Non-active Mek-1-GST and human GST-MAP kinase recombinant proteins produced in E. coli).
Stock Solutions Raf/Mek Cascade Assay:
• 1. Assay Dilution Buffer (ADB): 20 mM MOPS, pH 7.2, 25 mM β-glycerol phosphate, 5 mM EGTA, 1 mM sodium orthovanadate, 1 mM dithiothreitol. • 2. Magnesium/ATP Cocktail: 500 μM cold ATP and 75 mM magnesium chloride in ADB. • 3. Active Kinase: Human Active c-Raf: Use at 0.4 U per assay point. • 4. Non-active GST-MEK1: Use at 0.1 μg per assay point. • 5. Non-active GST-p42 MAP Kinase: Use at 1.0 μg per assay point. Stock Solutions ELISA: • 1. TBST—Tris (50 mM, pH 7.5), NaCl (150 mM), Tween-20 (0.05%) • 2. Superblock (Pierce) • 3. Anti-GST Ab (Pharmacia) • 4. Anti-Phospho MAPK (Sigma) • 5. Anti-Mouse Ab/Europium conjugate (Wallac) Assay Procedure: First Stage: c-Raf Dependent Activation of GST-MEK and GST-MAPK • 1. Add […] of ADB per assay (i.e. per well of a 96 well plate) • 2. Add […] of 0.5 mM cold ATP and 75 mM magnesium chloride in ADB. • 3. Add 2 ml of c-Raf (0.4 U/assay), in conjunction with 1.6 ml non-active MEK1 ([…]). • 4. Add 4 ml of non-active GST-p42 MAP Kinase ([…]). • 5. Incubate for 60 minutes at 30° C. in a shaking incubator. • 6. Transfer this mixture to an anti-GST Ab coated 96 well plate (Nunc Immunosorb plates coated o/n with a-GST, then blocked with Pierce Superblock). • 7. Incubate for 60 minutes at 30° C. in a shaking incubator • 8. Wash 3× with TBST, add Anti-Phospho MAPK (Sigma) (1:3000) • 9. Incubate for 60 minutes at 30° C. in a shaking incubator • 10. Wash 3× with TBST, add Anti-Mouse Ab/Europium conjugate (Wallac) (1:500) • 11. Incubate for 60 minutes at 30° C. in a shaking incubator • 12. Wash 3× with TBST, Read plates in Wallac Victor model Plate Reader. • 13. Collect data analyze in Excel for single point and IC50 determinations.
Single point assay—% inhibition at 10 mg/ml (% Inhibition=1—cpd.treated sample/untreated control). IC50 determinations—done on compounds from single point assays with >80% inhibition. Typically, the Raf/Mek assay is run at compound concentrations from 10 μM to 1 nM in half log dilutions. (% inhibition is determined for each compound concentration). Multiple entries for a given compound indicate that it was tested multiple times. The results obtained measure Raf and/or Mek kinase inhibition, and for representative compounds of this invention are listed in Table 4.

SMILES	IC50 (WM266-4 cells; Homo sapiens, WM 266-4, 96 h) [nM]	IC50 (BXPC3 cells) [nM]	melting point [°C]	IC50 (LoVo cells; Homo sapiens, LoVo, 96 h) [nM]	IC50 (LoVo cells) [nM]	IC50 [1]	IC50 (WM266-4 cells) [nM]
Cn1ccnc1Sc1ccc(Nc2c(C#N)cnc3cc(-c4ccc(CN5CCOCC5)cc4)sc23)cc1Cl [Example 83, 7-({3-chloro-4-[(1-methyl-1H-imidazol-2-yl)thio]phenyl}amino)-2-[4-(morpholin-4-ylmethyl)phenyl]thieno[3,2-b]pyridine-6-carbonitrile]	> 1000	> 1000	150 to 152	36	38	41 nM	
Cn1ccnc1Sc1ccc(Nc2c(C#N)cnc3cc(C#CCCN4CCOCC4)sc23)cc1Cl [Example 86]	350	350	195 to 200	94	160	221 nM and 332 nM	
CN(C)CC#Cc1cc2ncc(C#N)c(Nc3ccc(Sc4nccn4C)c(Cl)c3)c2s1 [Example 91, 7-({3-chloro-4-[(1-methyl-1H-imidazol-2-yl)thio]phenyl}amino)-2-[3-(dimethylamino)prop-1-ynyl]thieno[3,2-b]pyridine-6-carbonitrile]	95	92	204 to 207	64		475 nM	85
CCN(CC)Cc1ccc(-c2cc3ncc(C#N)c(Nc4ccc(Sc5nccn5C)c(Cl)c4)c3s2)cc1 [Example 98, 7-({3-chloro-4-[(1-methyl-1H-imidazol-2-yl)thio]phenyl}amino)-2-{4-[(diethylamino)methyl]phenyl}thieno[3,2-b]pyridine-6-carbonitrile]	40	38	200 to 203	33		5.6 nM	
CN1CCN(Cc2ccc(-c3cc4ncc(C#N)c(Nc5ccc(Sc6nccn6C)c(Cl)c5)c4s3)cc2)CC1 [Example 99, 7-({3-chloro-4-[(1-methyl-1H-imidazol-2-yl)thio]phenyl}amino)-2-{4-[(4-methylpiperazin-1-yl)methyl]phenyl}thieno[3,2-b]pyridine-6-carbonitrile]	> 1000	41	221 to 224	39		4.5 nM	
CCN(CC)CC#Cc1cc2ncc(C#N)c(Nc3ccc(Sc4nccn4C)c(Cl)c3)c2s1 [Example 118, 7-({3-chloro-4-[(1-methyl-1H-imidazol-2-yl)thio]phenyl}amino)-2-[3-(diethylamino)prop-1-ynyl]thieno[3,2-b]pyridine-6-carbonitrile]		71	190 to 194	73			
